Results: EP4345091A1, “BENZOIC ACID DERIVATIVES, METHODS AND USES THEREOF” (priority 2022, dated 2024)
Converted amounts (≈) assume the structure as drawn. Like-named read-outs stand apart in the source and are kept apart here.

What was measured:
[1] = test system: Mycobacterium tuberculosis H37Rv; assay: MIC and MBC by broth microdilution against M. tuberculosis H37Rv; assay type: cell-based, Mycobacterium tuberculosis H37Rv (ATCC 27294)
[2] = test system: M. smegmatis mc2 155; assay: MIC and MBC against M. smegmatis; assay type: cell-based
[3] = test system: M. bovis BCG; assay: microbe, parasite or virus in culture; assay type: cell-based; details: Mycobacterium tuberculosis variant bovis BCG
[4] = test system: Mycobacterium Bovis BCG infecting human macrophages THP-1; assay type: cell-based; details: compound concentration 2 µg/ml
[5] = Cytotoxicity assay in THP-1 cells; assay type: cell-based, human; details: human; THP-1 cells; lethal concentration for 50% of the cell population; read-out: LC50 (the source's name)
Excerpt: (§1) Cytotoxicity results were obtained through lethal concentration for 50% of the cell population, LC50. Table 6. Results obtained from cytotoxicity assays for the esters, represented by LD50 in µg/mL and comparison with MIC values, in µg/mL with toxicity/activity (T/A) index.
(§2) The T/A index quantitatively is the ratio between the lethal concentration (LC50) given by the minimum inhibitory concentration (MIC).

[6] = test system: human monocytic cell line THP-1 (ATCC56 TIB202); assay: Cytotoxicity assay in THP-1 cells; assay type: cell-based; details: toxicity/activity index: ratio LC50 (THP-1) / MIC (M. tuberculosis H37Rv)
Excerpt: as §1, §2

[7] = Stability in Mycobacterium smegmatis homogenate (enzymatic hydrolysis); details: mycobacterium smegmatis homogenate, pH 7.4
[8] = test system: Mycobacterium smegmatis homogenate; assay: as above; details: Mycobacterium smegmatis homogenate, 37°C
[9] = test system: M. avium DSM 44156; assay: MIC and MBC against M. avium; assay type: cell-based
[10] = pH 7.4
Description: (§3) Chemical hydrolysis was evaluated in phosphate buffer at physiological pH (7.4) to determine its influence in enzymatic studies.
(§4) 1176 µL pH 7.4 phosphate buffer or pH 5.9 phosphate buffer, 18 µL ACN and 6 µL of a 10-1 M stock solution of the prodrug in ACN were mixed in a 2mL vial. The solution was incubated at 37 °C and 50 µL aliquots were removed, mixed with 450 µL of ACN: H2O 1:1. The solution was analysed by HPLC, the remaining substrate and the correspondent acid were both measured.
(§5) The eluant was a mixture of acetonitrile (60%/70%) and aqueous phosphate buffer with 5% of KH2PO4/H3PO4 0.025M (40%/30%). The flow rate was always 1 mL/1 min and wavelength was set at 230 nm. All quantifications were evaluated using calibration curves from stock solutions.
(§6) The initial substrate concentration was 5 x 10^-4 M in all stability assays. All incubations were carried out at pH 7.4 and 37 °C under agitation using the phosphate buffer described above as diluting agent. […] Acetonitrile (2%) was used in all studies to ensure adequate solubilization of the substrates.

[11] = Chemical stability in phosphate buffer pH 7.4
Description: as §3, §4, §5, §6

[12] = Stability in human plasma (enzymatic hydrolysis)
[13] = Mycobacterium tuberculosis, H37RV, M. tuberculosis H37Rv, Table 3
[14] = Mycobacterium tuberculosis, H37RV, M. tuberculosis H37Rv, Table 4
[15] = Mycobacterium tuberculosis, H37RV, M. tuberculosis H37Rv, Tables 3, 6 and 7
[16] = Mycolicibacterium smegmatis, MC2155

Compound | MBC [1, 13] | MBC [1, 14] | MIC [1, 14] | MIC [1, 15] | MBC [2, 16] | MIC [2, 16] | MBC [3] | MIC [3] | CFU x10^4 ([4]; Time 0 days) | CFU x10^4 ([4]; Time 1 day) | CFU x10^4 ([4]; Time 3 days) | CFU x10^4 ([4]; Time 7 days) | CC50 [5] | T/A [6] | Degradation (%) 24h [8] | Degradation (%) 48h [8] | MBC ([9]; Mycobacterium avium, DSM44156) | MIC ([9]; Mycobacterium avium, DSM44156) | further results
CCCCCCNC(=O)c1cc([N+](=O)[O-])cc([N+](=O)[O-])c1 [Compound 7b, N-hexyl-3.5-dinitrobenzamide] | 0.031 µg/mL (≈ 0.105 µM) | ≤ 0.5 µg/mL | ≤ 0.5 µg/mL | 0.031 µg/mL (≈ 0.105 µM) | 1 µg/mL (≈ 3.39 µM) | 1 µg/mL (≈ 3.39 µM) | 0.25 µg/mL (≈ 0.847 µM) | 0.25 µg/mL (≈ 0.847 µM) | 9.2 CFUs per mL | 4.58 CFUs per mL | 0.40 CFUs per mL | 0.05 CFUs per mL | 361 µg/mL (≈ 1220 µM) | 11645 | 18% | 33% | – | – | half-life at 500 µM [7]: 82.5 ± 1.4 h
CCCCCCCCNC(=O)c1cc([N+](=O)[O-])cc([N+](=O)[O-])c1 [Compound 7c, N-octyl-3.5-dinitrobenzamide] | 0.016 µg/mL (≈ 0.0495 µM) | ≤ 0.062 µg/mL | ≤ 0.062 µg/mL | 0.016 µg/mL (≈ 0.0495 µM) | 4 µg/mL (≈ 12.4 µM) | 0.25 µg/mL (≈ 0.773 µM) | 0.015 µg/mL (≈ 0.0464 µM) | 0.015 µg/mL (≈ 0.0464 µM) | – | – | – | – | 97 µg/mL (≈ 300 µM) | 6063 | 3% | 5% | 64 µg/mL (≈ 198 µM) | 32 µg/mL (≈ 99 µM) | Degradation (%) 24h [10]: 0%; Degradation (%) 48h [10]: 0%; Degradation (%) 72h [10]: 0%; Degradation (%) 168h [10]: 0%; Degradation (%) 332h [10]: 0%
CCCCCCCCCCNC(=O)c1cc([N+](=O)[O-])cc([N+](=O)[O-])c1 [Compound 7d, N-decyl-3.5-dinitrobenzamide] | 0.063 µg/mL (≈ 0.179 µM) | ≤ 0.5 µg/mL | ≤ 0.5 µg/mL | 0.063 µg/mL (≈ 0.179 µM) | 1 µg/mL (≈ 2.85 µM) | 1 µg/mL (≈ 2.85 µM) | 0.062 µg/mL (≈ 0.176 µM) | 0.062 µg/mL (≈ 0.176 µM) | 9.2 CFUs per mL | 7.33 CFUs per mL | 0.32 CFUs per mL | 0.03 CFUs per mL | 53 µg/mL (≈ 151 µM) | 841 | 1% | 2% | – | – | –
CCCCCCCCCCCCNC(=O)c1cc([N+](=O)[O-])cc([N+](=O)[O-])c1 [Compound 7e, N-dodecyl-3.5-dinitrobenzamide] | 0.5 µg/mL (≈ 1.32 µM) | 0.5 µg/mL (≈ 1.32 µM) | 0.5 µg/mL (≈ 1.32 µM) | 0.5 µg/mL (≈ 1.32 µM) | > 2.66 µg/mL | 0.66 µg/mL (≈ 1.74 µM) | 0.166 µg/mL (≈ 0.437 µM) | 0.083 µg/mL (≈ 0.219 µM) | – | – | – | – | 72 µg/mL (≈ 190 µM) | 144 | 1% | 2% | > 341 µg/mL | > 341 µg/mL | Degradation (%) 24h ([11]; 24h): 0%; Degradation (%) 48h ([11]; 48h): 0%; Degradation (%) 72h ([11]; 72h): 0%; Degradation (%) 168h ([11]; 168h): 0%; Degradation (%) 332h ([11]; 332h): 0%; Degradation (%) 24h ([12]; 24h): 0%; Degradation (%) 48h ([12]; 48h): 0%; Degradation (%) 72h ([12]; 72h): 0%
CCCCCCCCCCCCCCNC(=O)c1cc([N+](=O)[O-])cc([N+](=O)[O-])c1 [Compound 7f, N-tetradecyl-3.5-dinitrobenzamide] | 0.25 µg/mL (≈ 0.613 µM) | ≤ 0.5 µg/mL | ≤ 0.5 µg/mL | 0.125 µg/mL (≈ 0.307 µM) | 4 µg/mL (≈ 9.82 µM) | 1 µg/mL (≈ 2.45 µM) | 0.25 µg/mL (≈ 0.613 µM) | 0.25 µg/mL (≈ 0.613 µM) | 9.2 CFUs per mL | 14.16 CFUs per mL | 10.08 CFUs per mL | 13.91 CFUs per mL | 330 µg/mL (≈ 810 µM) | 2640 | 1% | 2% | – | – | –
N-butyl-3.5-dinitrobenzamide [Compound 7a] | – | – | – | – | – | – | – | – | – | – | – | – | – | – | – | – | – | – | MBC [1]: 0.5 µg/mL; MIC [1]: 0.5 µg/mL; MBC ([9]; M. avium DSM 44156): 512 µg/mL; MIC ([9]; M. avium DSM 44156): 64 µg/mL; MBC ([2]; M. smegmatis mc2 155): 4 µg/mL; MIC ([2]; M. smegmatis mc2 155): 4 µg/mL
